{"source": "patent US11090271B2", "about": "“Soft gelatin capsules containing hydroxypropyl beta cyclodextrin with high stability” (ALTERGON S.A., priority 2017, dated 2021)", "key": {"[1]": {"assay": "Storage stability of aqueous diclofenac solutions complexed with HPBCD (colour)", "type": "physicochemical", "procedure": "Occasionally the complexation in cyclodextrin has been carried out to protect the active ingredients from degradation phenomena, however with modest results (International Journal of Photoenergy, 3, 2001, 205-211). […] Finally, storage stability tests were carried out with various aqueous solutions of diclofenac sodium entirely complexed with hydroxypropyl beta ciclodextrin (HPBCD), having the following composition: diclofenac sodium 40.6 mg; HPBCD 177.6 mg; purified water 782.4 mg."}, "[2]": {"assay": "Water solubility of the active ingredient at room temperature", "type": "physicochemical", "details": "room temperature (20° C.)", "procedure": "In a further embodiment, the active ingredient is a water-soluble one, i.e. it has a water solubility at room temperature (20° C.) higher than 0.1% w/v, preferably higher than 0.5% w/v, or more preferably higher than 1% w/v. […] According to this embodiment, the present invention is characterized as a soft gelatin capsule having inside a fill comprising a water-soluble active ingredient containing nitrogen, wherein the wall of said capsule comprises hydroxypropyl beta cyclodextrin (HPBCD) in an amount being: (a) less than 10% by weight on the weight of the wall and (b) sub-stoichiometric to form an inclusion complex with the active ingredient present in the fill."}}}
{"compound": "O=C(O)Cc1ccccc1Nc1c(Cl)cccc1Cl", "note": "[diclofenac sodium]", "values": [{"measurement": "colour of the solution", "setting": "[1]; aqueous solution entirely complexed with HPBCD, 18 months at 30° C. and 65% R.H.", "value": "evident amber colour"}]}
{"compound": "O=C(O)Cc1ccccc1Nc1c(Cl)cccc1Cl", "note": "[diclofenac]", "values": [{"measurement": "colour of the solution", "setting": "[1]; aqueous solution complexed in HPBCD, storage at 25° C.±2° C., 60±5% R.H.", "value": "amber colour"}]}
{"compound": "diclofenac epolamine [DHEP]", "values": [{"measurement": "water solubility", "setting": "[2]", "value": "about 1.9 % w/v"}]}
